According to patent US9693997B2, “Antiviral compounds” (priority 2013, dated 2017):
Counter-ions that a name gives are not always drawn.

Key:
[1] = test system: Pseudotyped HCV GT1b particles (HCVpp), entry into Huh7-high CD81 cells; assay: microbe, parasite or virus in culture; format: cell-based, HCV GT1b Con1 strain; settings: Hepatitis C virus, GT1B, 72 h, read-out: HCVpp GT-1b (EC50, μM)
[2] = test system: pseudotyped VSV G particles (VSVpp) in Huh7-high CD81 cells; assay: microbe, parasite or virus in culture; format: cell-based, vesicular stomatitis virus; settings: Vesicular stomatitis virus, 72 h, read-out: VSVpp (EC50, μM)

SMILES | EC50 [1] | EC50 [2]
Nc1nc(Nc2cc(Cl)c(-c3ccc(S(=O)(=O)N4CC(O)C4)cc3)c(C(F)(F)F)c2)n[nH]1 [Compound 191, 1-(4′-(5-amino-1H-1,2,4-triazol-3-ylamino)-2′-chloro-6′-(trifluoromethyl)biphenyl-4-ylsulfonyl)azetidin-3-ol] | 0.069 µM | 25 µM
CS(=O)(=O)c1ccc(-c2c(Cl)cc(Nc3n[nH]c(N)n3)cc2Cl)cc1F [Compound 121, N-3-(2,6-Dichloro-3′-fluoro-4′-methanesulfonyl-biphenyl-4-yl)-1H-[1,2,4]triazole-3,5-diamine] | 0.068 µM | 0.08 µM
Nc1nc(Nc2cc(Cl)c(-c3ccccc3)c(C(F)(F)F)c2)n[nH]1 [Compound 201, N3-(2-chloro-6-(trifluoromethyl)biphenyl-4-yl)-1H-1,2,4-triazole-3,5-diamine 2,2,2-trifluoroacetate] | 0.405 µM | 58.3 µM
Nc1nc(Nc2cc(Cl)c(-c3cccc(Cl)c3Cl)c(Cl)c2)n[nH]1 [Compound 109, N-3-(2,6,2′,3′-Tetrachloro-biphenyl-4-yl)-1H-[1,2,4]triazole-3,5-diamine] | 0.74 µM | 46.5 µM
CN(CCNS(=O)(=O)c1ccc(-c2c(Cl)cc(Nc3n[nH]c(N)n3)cc2C(F)(F)F)cc1)C(=O)OC(C)(C)C [Compound 209, tert-butyl 2-(4′-(5-amino-1H-1,2,4-triazol-3-ylamino)-2′-chloro-6′-(trifluoromethyl)biphenyl-4-ylsulfonamido)ethyl(methyl)carbamate] | 0.005 µM | 7.09 µM
Nc1n[nH]c(Nc2cc(F)c(-c3ccc(C(F)(F)F)cc3)c(C(F)(F)F)c2)n1 [Compound 246, N^5-[6-Fluoro-2,4′-bis-trifluoromethylbiphenyl-4-yl]-1H-[1,2,4]-triazole-3,5-diamine] | 3.54 µM | 37.9 µM
COc1ccc(-c2c(Cl)cc(Nc3n[nH]c(N)n3)cc2C(F)(F)F)cc1S(=O)(=O)C(C)C [Compound 19, N*3*-[2-Chloro-4′-methoxy-3′-(propane-2-sulfonyl)-6-trifluoromethyl-biphenyl-4-yl]-1H-[1,2,4]triazole-3,5-diamine] | 0.049 µM | > 10 µM
COc1ccc(-c2c(Cl)cc(Nc3n[nH]c(N)n3)cc2C(F)(F)F)cc1S(=O)(=O)N1CCNCC1 [Compound 182, N3-(2-chloro-4′-methoxy-3′-(piperazin-1-ylsulfonyl)-6-(trifluoromethyl)biphenyl-4-yl)-1H-1,2,4-triazole-3,5-diamine hydrochloride] | 0.044 µM | > 10 µM
CC1(C)OCC(COc2ccc(-c3c(Cl)cc(Nc4n[nH]c(N)n4)cc3Cl)cc2)O1 (centres unmarked) [Compound 274, N*3*-[2,6-Dichloro-4′-(2,2-dimethyl-[1,3]dioxolan-4-ylmethoxy)-biphenyl-4-yl]-1H-[1,2,4]triazole-3,5-diamine] | 0.121 µM | 34.1 µM
Nc1nc(Nc2cc(Cl)c(-c3ccc(OCc4ccccn4)cc3)c(Cl)c2)n[nH]1 [Compound 284, N*3*-[2,6-Dichloro-4′-(pyridin-2-ylmethoxy)-biphenyl-4-yl]-1H-[1,2,4]triazole-3,5-diamine] | 0.576 µM | > 10 µM
N#Cc1ccc(-c2c(F)cc(Nc3nc(N)n[nH]3)cc2F)cc1 [Compound 87] | 0.696 µM | > 10 µM
Nc1nc(Nc2cc(Cl)c(-c3ccc(C(=O)NCCO)c(F)c3)c(C(F)(F)F)c2)n[nH]1 [Compound 293, 4′-(5-amino-1H-1,2,4-triazol-3-ylamino)-2′-chloro-3-fluoro-N-(2-hydroxyethyl)-6′-(trifluoromethyl)biphenyl-4-carboxamide] | 0.139 µM | 15.7 µM
CS(=O)(=O)n1ccc2c(-c3c(Cl)cc(Nc4n[nH]c(N)n4)cc3Cl)cccc21 [Compound 15, N*3*-[3,5-Dichloro-4-(1-methanesulfonyl-1H-indol-4-yl)-phenyl]-1H-[1,2,4]triazole-3,5-diamine] | 0.05 µM | 0.23 µM
Nc1nc(Nc2cc(Cl)c(-c3cccc(S(=O)(=O)N4CCCC4)c3)c(C(F)(F)F)c2)n[nH]1 [Compound 192, N3-(2-chloro-3′-(pyrrolidin-1-ylsulfonyl)-6-(trifluoromethyl)biphenyl-4-yl)-1H-1,2,4-triazole-3,5-diamine] | 0.084 µM | 17.2 µM
CC(C)(C)OC(=O)N1CC(COc2ccc(-c3c(Cl)cc(Nc4n[nH]c(N)n4)cc3Cl)cc2)C1 [Compound 260, 3-[4′-(5-Amino-1H-[1,2,4]triazol-3-ylamino)-2′,6′-dichloro-biphenyl-4-yloxymethyl]-azetidine-1-carboxylic acid tert-butyl ester] | 0.022 µM | 17.5 µM
Nc1nc(Nc2ccc(-c3ccc(F)c(F)c3)c(C(F)(F)F)c2)n[nH]1 [Compound 152, N*3*-(3′,4′-Difluoro-2-trifluoromethyl-biphenyl-4-yl)-1H-[1,2,4]triazole-3,5-diamine] | 0.575 µM | 20.4 µM

SMILES | EC50 [1] | EC50 [2]
Nc1nc(Nc2cc(Cl)c(-c3ccc(NC(=O)C4CCC(F)(F)CC4)cc3)c(Cl)c2)n[nH]1 [Compound 250, 4,4-Difluorocyclohexanecarboxylic acid [4′-(5-amino-1H-[1,2,4]triazol-3-ylamino)-2′,6′-dichloro-biphenyl-4-yl]-amide] | 0.013 µM | 14 µM
Nc1ccc(-c2c(Cl)cc(Nc3n[nH]c(N)n3)cc2Cl)cc1 [Compound 50, N*3*-(4′-Amino-2,6-dichloro-biphenyl-4-yl)-1H-[1,2,4]triazole-3,5-diamine] | 0.689 µM | > 10 µM
COCC(=O)Nc1ccc(-c2c(Cl)cc(Nc3n[nH]c(N)n3)cc2Cl)cc1 [Compound 73, N-(4′-(5-amino-1H-[1,2,4]triazol-3-ylamino)-2′,6′-dichlorobiphenyl-4-yl)-2-methoxyacetamide] | 0.113 µM | 24.1 µM
COc1cc(-c2c(Cl)cc(Nc3n[nH]c(N)n3)cc2C(F)(F)F)ccc1S(=O)(=O)NC1CCN(C(=O)OC(C)(C)C)CC1 [Compound 163, tert-butyl 4-(4′-(5-amino-1H-1,2,4-triazol-3-ylamino)-2′-chloro-3-methoxy-6′-(trifluoromethyl)biphenyl-4-ylsulfonamido)piperidine-1-carboxylate] | 0.005 µM | > 10 µM
CC(C)(C)OC(=O)NCCOc1ccc(-c2c(Cl)cc(Nc3n[nH]c(N)n3)cc2C(F)(F)F)cc1 [Compound 134, {2-[4′-(5-Amino-1H-[1,2,4]triazol-3-ylamino)-6′-chloro-2′-trifluoromethyl-biphenyl-4-yloxy]-ethyl}-carbamic acid tert-butyl ester] | 0.081 µM | > 10 µM
COc1ccccc1-c1c(Cl)cc(Nc2n[nH]c(N)n2)cc1Cl [Compound 120, N-3-(2,6-Dichloro-2′-methoxy-biphenyl-4-yl)-1H-[1,2,4]triazole-3,5-diamine] | 0.181 µM | 1.12 µM
CS(=O)(=O)CCN1CCC(Oc2ccc(-c3c(Cl)cc(Nc4n[nH]c(N)n4)cc3C(F)(F)F)cc2)CC1 [Compound 141, N*3*-{6-Chloro-4′-[1-(2-methanesulfonyl-ethyl)-piperidin-4-yloxy]-2-trifluoromethyl-biphenyl-4-yl}-1H-[1,2,4]triazole-3,5-diamine hydrochloride] | 0.194 µM | > 10 µM
Nc1nc(Nc2cc(Cl)c(-c3ccc(S(=O)(=O)C4CCN(CCC(F)(F)F)CC4)cc3)c(C(F)(F)F)c2)n[nH]1 [Compound 4, N*3*-{2-Chloro-6-trifluoromethyl-4′-[1-(3,3,3-trifluoro-propyl)-piperidine-4-sulfonyl]-biphenyl-4-yl}-1H-[1,2,4]triazole-3,5-diamine; hydrochloride] | 0.005 µM | > 10 µM
CC1(O)CCN(S(=O)(=O)c2ccc(-c3c(Cl)cc(Nc4n[nH]c(N)n4)cc3C(F)(F)F)cc2)CC1 [Compound 66, 1-[4′-(5-Amino-1H-[1,2,4]triazol-3-ylamino)-6′-chloro-2′-trifluoromethyl-biphenyl-4-sulfonyl]-4-methyl-piperidin-4-ol] | 0.101 µM | 7.32 µM
CC(C)C(=O)Nc1cccc(-c2c(Cl)cc(Nc3n[nH]c(N)n3)cc2Cl)c1 [Compound 252, N-[4′-(5-amino-1H-[1,2,4]triazol-3-ylamino)-2′,6′-dichloro-biphenyl-3-yl]-isobutyramide] | 0.067 µM | > 10 µM
Cc1ccc(-c2c(F)cc(Nc3nc(N)n[nH]3)cc2C(F)(F)F)cc1 [Compound 247, N^5-[6-Fluoro-4′-methyl-2-trifluoromethylbiphenyl-4-yl]-1H-[1,2,4]-triazole-3,5-diamine] | 1.7 µM | 10.7 µM
Nc1nc(Nc2cc(Cl)c(-c3ccc(S(=O)(=O)C4CNC4)cc3)c(C(F)(F)F)c2)n[nH]1 [Compound 67, N*3*-[4′-(Azetidine-3-sulfonyl)-6-chloro-2-trifluoromethyl-biphenyl-4-yl]-1H-[1,2,4]triazole-3,5-diamine hydrochloride] | 0.107 µM | > 10 µM
Nc1nc(Nc2cc(Cl)c(-c3ccc(S(=O)(=O)C[C@@H]4CCCN4)cc3)c(C(F)(F)F)c2)n[nH]1 [Compound 35, N*3*-[2-Chloro-4′-((S)-1-pyrrolidin-2-ylmethanesulfonyl)-6-trifluoromethyl-biphenyl-4-yl]-1H-[1,2,4]triazole-3,5-diamine; hydrochloride] | 0.127 µM | 4.79 µM
CC(C)CS(=O)(=O)c1ccc(-c2c(Cl)cc(Nc3n[nH]c(N)n3)cc2C(F)(F)F)cc1 [Compound 65, N*3*-[6-Chloro-4′-(2-methyl-propane-1-sulfonyl)-2-trifluoromethyl-biphenyl-4-yl]-1H-[1,2,4]triazole-3,5-diamine] | 0.026 µM | > 10 µM
CC(C)(C)OC(=O)N1CCC[C@H]1COc1ccc(-c2c(Cl)cc(Nc3n[nH]c(N)n3)cc2Cl)cc1 [Compound 280, (S)-2-[4′-(5-Amino-1H-[1,2,4]triazol-3-ylamino)-2′,6′-dichloro-biphenyl-4-yloxymethyl]-pyrrolidine-1-carboxylic acid tert-butyl ester] | 0.401 µM | > 10 µM
